The values below come from patent publication US10780074B2, “Compounds and uses thereof” (Sunovion Pharmaceuticals Inc., priority 2017, dated 2020).

The test system of this assay is behaviors of compound-treated mice. As to the kind of experiment: Neuropharmacological Assay (SmartCube). As to conditions: for minimal effective dose: Mus musculus, ip, 0.25 h, dose having 50% or more total activity in SmartCube, i.p., read-out: MED (minimal effective dose); for AD: ADHD (probability that activity matches class) / AG: analgesic (probability that activity matches class) / AX: anxiolytic (probability that activity matches class) / CE: cognitive enhancer (probability that activity matches class) / DP: anti-depressant (probability that activity matches class) / MS: mood stabilizer (probability that activity matches class) / PS: anti-psychotic (probability that activity matches class) / SD: sedative hypnotic (probability that activity matches class) / UN: uncharacterized CNS activity (probability that activity matches class): i.p. 15 min before behavioral test, most efficacious dose(s) of 3 doses. The format is in vivo. The gist of the method: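 Behavioral signatures were captured automatically by video, and each drug class received a probability for the best of three i.p. doses given 15 min pre-test (vehicle: Pharmasolve/PEG/propylene glycol). Potency is given as MED, the lowest mpk dose (typically 0.3–30) reaching 50% or more total activity.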

As usually defined, the minimal effective dose is the lowest level tested that produced the effect sought.

Counter-ions that a name gives are not always drawn.

On to `NC[C@@H]1OCc2c(-c3cccnc3)cccc21` [Compound 35, (R)-(4-(Pyridin-3-yl)-1,3-dihydroisobenzofuran-1-yl)methanamine hydrochloride], for which the minimal effective dose was 3 to 10 mg/kg, the “AD: ADHD (probability that activity matches class)” value (“AD: ADHD” below) is “++ (5% ≤ ++ <25%)”, the “AG: analgesic (probability that activity matches class)” value (“AG: analgesic” below) was “+ (LOQ ≤ + <5%)” and the “AX: anxiolytic (probability that activity matches class)” value (“AX: anxiolytic” for short) is given as “++ (5% ≤ ++ <25%)”. The “CE: cognitive enhancer (probability that activity matches class)” value (shortened to “CE: cognitive enhancer”) is “+ (LOQ ≤ + <5%)”, the “DP: anti-depressant (probability that activity matches class)” value (“DP: anti-depressant” below) is recorded as “++++ (50% ≤ ++++)”, the “MS: mood stabilizer (probability that activity matches class)” value (shortened to “MS: mood stabilizer”) is given as “+ (LOQ ≤ + <5%)” and the “PS: anti-psychotic (probability that activity matches class)” value (“PS: anti-psychotic” for short) was “+ (LOQ ≤ + <5%)”. Further, the “SD: sedative hypnotic (probability that activity matches class)” value (shortened to “SD: sedative hypnotic”) is listed as “+ (LOQ ≤ + <5%)” and the “UN: uncharacterized CNS activity (probability that activity matches class)” value (shortened to “UN: uncharacterized CNS activity”) is “+ (LOQ ≤ + <5%)”.

Regarding `NC[C@H]1OCc2c(-c3cccnc3)cccc21` [Compound 36, (S)-(4-(Pyridin-3-yl)-1,3-dihydroisobenzofuran-1-yl)methanamine hydrochloride], the minimal effective dose was at most 3 mg/kg, the “AD: ADHD” value is “++ (5% ≤ ++ <25%)”, the “AG: analgesic” value is on record as “+ (LOQ ≤ + <5%)” and the “AX: anxiolytic” value is given as “+ (LOQ ≤ + <5%)”. Moreover, the “CE: cognitive enhancer” value was “++ (5% ≤ ++ <25%)”, the “DP: anti-depressant” value is listed as “++++ (50% ≤ ++++)”, the “MS: mood stabilizer” value is “+ (LOQ ≤ + <5%)” and the “PS: anti-psychotic” value is given as “+ (LOQ ≤ + <5%)”. Moreover, the “SD: sedative hypnotic” value is listed as “+ (LOQ ≤ + <5%)” and the “UN: uncharacterized CNS activity” value was “+ (LOQ ≤ + <5%)”.

`CNC[C@H]1OCc2c(-c3ccncc3)cccc21` [Compound 40, (S)—N-Methyl-1-(4-(pyridin-4-yl)-1,3-dihydroisobenzofuran-1-yl)methanamine hydrochloride salt]: the minimal effective dose is at most 3 mg/kg, the “AD: ADHD” value is “++ (5% ≤ ++ <25%)”, the “AG: analgesic” value was “++++ (50% ≤ ++++)” and the “AX: anxiolytic” value is “++ (5% ≤ ++ <25%)”. Further, the “CE: cognitive enhancer” value is recorded as “++ (5% ≤ ++ <25%)”, the “DP: anti-depressant” value is given as “++++ (50% ≤ ++++)”, the “MS: mood stabilizer” value is “+ (LOQ ≤ + <5%)” and the “PS: anti-psychotic” value is on record as “+ (LOQ ≤ + <5%)”. The “SD: sedative hypnotic” value is recorded as “+ (LOQ ≤ + <5%)” and the “UN: uncharacterized CNS activity” value is “+ (LOQ ≤ + <5%)”.

Take `NC[C@@H]1OCCc2ccc(-c3ccncc3)cc21` [Compound 47, (R)-(7-(pyridin-4-yl)isochroman-1-yl)methanamine hydrochloride]: the minimal effective dose fell in the range of 3 to 10 mg/kg, the “AD: ADHD” value is reported as “+ (LOQ ≤ + <5%)”, the “AG: analgesic” value is “+ (LOQ ≤ + <5%)” and the “AX: anxiolytic” value was “++ (5% ≤ ++ <25%)”. Further, the “CE: cognitive enhancer” value is recorded as “+ (LOQ ≤ + <5%)”, the “DP: anti-depressant” value is given as “++++ (50% ≤ ++++)”, the “MS: mood stabilizer” value is “+ (LOQ ≤ + <5%)” and the “PS: anti-psychotic” value was “++ (5% ≤ ++ <25%)”. The “SD: sedative hypnotic” value is “+ (LOQ ≤ + <5%)” and the “UN: uncharacterized CNS activity” value is on record as “+ (LOQ ≤ + <5%)”.

In the case of `NC[C@H]1OCCc2ccc(-c3ccncc3)cc21` [Compound 48, (S)-(7-(pyridin-4-yl)isochroman-1-yl)methanamine hydrochloride], the minimal effective dose is 3 to 10 mg/kg, the “AD: ADHD” value is “+ (LOQ ≤ + <5%)”, the “AG: analgesic” value is “+ (LOQ ≤ + <5%)” and the “AX: anxiolytic” value was “++ (5% ≤ ++ <25%)”. In addition, the “CE: cognitive enhancer” value is on record as “++ (5% ≤ ++ <25%)”, the “DP: anti-depressant” value was “+ (LOQ ≤ + <5%)”, the “MS: mood stabilizer” value is recorded as “+ (LOQ ≤ + <5%)” and the “PS: anti-psychotic” value was “++ (5% ≤ ++ <25%)”. The “SD: sedative hypnotic” value is given as “+++ (25% ≤ +++ <50%)” and the “UN: uncharacterized CNS activity” value is “+++ (25% ≤ +++ <50%)”.

On to `CNC[C@@H]1OCCc2ccc(-c3ccncc3)cc21` [Compound 49, (R)—N-Methyl-1-(7-(pyridin-4-yl)isochroman-1-yl)methanamine hydrochloride], for which the minimal effective dose is at most 3 mg/kg, the “AD: ADHD” value is recorded as “+ (LOQ ≤ + <5%)”, the “AG: analgesic” value was “++ (5% ≤ ++ <25%)” and the “AX: anxiolytic” value is given as “++ (5% ≤ ++ <25%)”. Besides, the “CE: cognitive enhancer” value is “++ (5% ≤ ++ <25%)”, the “DP: anti-depressant” value is recorded as “++ (5% ≤ ++ <25%)”, the “MS: mood stabilizer” value is listed as “+ (LOQ ≤ + <5%)” and the “PS: anti-psychotic” value is on record as “++ (5% ≤ ++ <25%)”. For the same compound, the “SD: sedative hypnotic” value is recorded as “+ (LOQ ≤ + <5%)” and the “UN: uncharacterized CNS activity” value is “++++ (50% ≤ ++++)”.

`CNC[C@H]1OCCc2ccc(-c3ccncc3)cc21` [Compound 50, (S)—N-Methyl-1-(7-(pyridin-4-yl)isochroman-1-yl)methanamine hydrochloride]: the minimal effective dose was 3 to 10 mg/kg, the “AD: ADHD” value is “+ (LOQ ≤ + <5%)”, the “AG: analgesic” value is on record as “+ (LOQ ≤ + <5%)” and the “AX: anxiolytic” value is on record as “++ (5% ≤ ++ <25%)”. Further, the “CE: cognitive enhancer” value was “++ (5% ≤ ++ <25%)”, the “DP: anti-depressant” value was “++ (5% ≤ ++ <25%)”, the “MS: mood stabilizer” value is reported as “+ (LOQ ≤ + <5%)” and the “PS: anti-psychotic” value was “+ (LOQ ≤ + <5%)”. Further, the “SD: sedative hypnotic” value was “+ (LOQ ≤ + <5%)” and the “UN: uncharacterized CNS activity” value is on record as “++++ (50% ≤ ++++)”.

As to `CCNCC1OCCc2c(-c3ccncc3)cccc21` (centres unmarked) [Compound 51, N-((5-(Pyridin-4-yl)isochroman-1-yl)methyl)ethanamine hydrochloride salt], the minimal effective dose fell in the range of 3 to 10 mg/kg, the “AD: ADHD” value is listed as “+ (LOQ ≤ + <5%)”, the “AG: analgesic” value is recorded as “+ (LOQ ≤ + <5%)” and the “AX: anxiolytic” value is “+ (LOQ ≤ + <5%)”. Besides, the “CE: cognitive enhancer” value is recorded as “+ (LOQ ≤ + <5%)”, the “DP: anti-depressant” value is “++++ (50% ≤ ++++)”, the “MS: mood stabilizer” value is listed as “+ (LOQ ≤ + <5%)” and the “PS: anti-psychotic” value is “++ (5% ≤ ++ <25%)”. Further, the “SD: sedative hypnotic” value was “++ (5% ≤ ++ <25%)” and the “UN: uncharacterized CNS activity” value is recorded as “+ (LOQ ≤ + <5%)”.

`CNCC1OCCc2c(-c3cncs3)cccc21` (centres unmarked) [Compound 52, N-Methyl-1-(5-(thiazol-5-yl)isochroman-1-yl)methanamine hydrochloride]: the minimal effective dose was 3 to 10 mg/kg, the “AD: ADHD” value is given as “+ (LOQ ≤ + <5%)”, the “AG: analgesic” value is “+ (LOQ ≤ + <5%)” and the “AX: anxiolytic” value is listed as “+ (LOQ ≤ + <5%)”. The “CE: cognitive enhancer” value is “+ (LOQ ≤ + <5%)”, the “DP: anti-depressant” value is “++++ (50% ≤ ++++)”, the “MS: mood stabilizer” value is “+ (LOQ ≤ + <5%)” and the “PS: anti-psychotic” value was “+ (LOQ ≤ + <5%)”. The “SD: sedative hypnotic” value is listed as “+ (LOQ ≤ + <5%)” and the “UN: uncharacterized CNS activity” value is “++ (5% ≤ ++ <25%)”.

For the compound `CNCC1OCCc2c(-c3ccncn3)cccc21` (centres unmarked) [Compound 53, N-Methyl-1-(5-(pyrimidin-4-yl)isochroman-1-yl)methanamine hydrochloride salt], the minimal effective dose was 3 to 10 mg/kg, the “AD: ADHD” value is on record as “++ (5% ≤ ++ <25%)”, the “AG: analgesic” value is recorded as “+ (LOQ ≤ + <5%)” and the “AX: anxiolytic” value was “++ (5% ≤ ++ <25%)”. Besides, the “CE: cognitive enhancer” value is on record as “+ (LOQ ≤ + <5%)”, the “DP: anti-depressant” value is given as “++++ (50% ≤ ++++)”, the “MS: mood stabilizer” value is “+ (LOQ ≤ + <5%)” and the “PS: anti-psychotic” value is on record as “+ (LOQ ≤ + <5%)”. The “SD: sedative hypnotic” value is “+ (LOQ ≤ + <5%)” and the “UN: uncharacterized CNS activity” value was “+ (LOQ ≤ + <5%)”.

On to `CNCC1OCCc2c(-c3ccnnc3)cccc21` (centres unmarked) [Compound 54, N-Methyl-1-(5-(pyridazin-4-yl)isochroman-1-yl)methanamine hydrochloride salt], for which the minimal effective dose is 3 to 10 mg/kg, the “AD: ADHD” value is “+ (LOQ ≤ + <5%)”, the “AG: analgesic” value is “+ (LOQ ≤ + <5%)” and the “AX: anxiolytic” value is listed as “+ (LOQ ≤ + <5%)”. Also, the “CE: cognitive enhancer” value was “++ (5% ≤ ++ <25%)”, the “DP: anti-depressant” value was “++++ (50% ≤ ++++)”, the “MS: mood stabilizer” value is given as “+ (LOQ ≤ + <5%)” and the “PS: anti-psychotic” value is “+ (LOQ ≤ + <5%)”. The “SD: sedative hypnotic” value is given as “+ (LOQ ≤ + <5%)” and the “UN: uncharacterized CNS activity” value was “+ (LOQ ≤ + <5%)”.
